The text below walks through data of publication PMC12866179, “Oxidized MIF is an Alzheimer’s disease drug target relaying external risk factors to tau pathology” (Cell Reports Medicine, 2025).

In one data set the test system is human brain organoids. The experiment in a line: TUNEL assay in human brain organoids. The class given is cell-based. The method, then: 60 days old human brain organoids with an estimated cell number of 2.5x10^6 were preincubated with DMSO or 250 nM of PAV-174 for 1h (final DMSO concentration was 0.5%). Then organoids were infected with HSV-1 at an MOI of 0.1 or 1.0. At the next day the medium was renewed and new compound was added. After another 24h, the organoids were washed two times with PBS and then either fixed with 4% PFA at 4°C overnight (for immunocytochemistry and TUNEL assay) or lysed with cold RIPA buffer (50 mM Tris-HCL, pH 7.4, 1% NP-40, 0.5% Na-deoxycholate, 0.1% SDS, 150 mM NaCl, 5 mM EDTA, 50 mM NaF) plus 1X Protease inhibitor cocktail (Roche) and phosphatase inhibitor cocktail (Sigma) followed by 4x sonication for 30s using a Misonix ultrasonic water bath at 100% amplitude. Protein concentration was determined with the DC Protein Assay (Bio-Rad). For immunocytochemistry and TUNEL assay fixed organoids were embedded in paraffin and section of 5 μm were prepared.
Apoptotic cells in sections of brain organoids were detected by TdT-mediated dUTP-biotin nick end labeling (TUNEL) using the DeadEnd Fluorometric TUNEL System (Promega) according to the manufacturers recommendations. At least three 5-μm sections of the brain organoids were analyzed by taking at least 10 images of each organoid. Dead cells were counted using Fiji/ImageJ (NIH).

The next data set relates to GSK3β. Briefly: GSK3β phosphorylation (Ser9) in SH-SY5Y-tau-P301S cells, immunoblot. The data set is classed as cell-based, human. Conditions: dose-dependent and MIF-dependent. The method, then:
After the protein concentration of cell lysates and homogenates had been determined using the DC Protein Assay Kit (Bio-Rad), 20 μg of each sample were dissolved in NuPAGE LDS Sample buffer (including 2% β-mercaptoethanol), boiled at 100°C for 5 min and then separated on NuPAGE Novex 4–12% Bis-Tris midi gels (Invitrogen) using NuPAGE MES SDS Running buffer (Invitrogen). Proteins were then transferred to a 0.2 μm nitrocellulose membrane (Amersham) in 24 mM Tris/192 mM glycine/20% MeOH at 400 mA for 2h using a tank blot system (Bio-Rad). In order to detect any blotting artifacts, the proteins on the membranes were visualized with Ponceau S (Sigma). The membranes were destained with PBS and then blocked with PBS/5% nonfat milk (Oxoid) for 1h at RT. Incubations with primary antibodies (diluted 1:1,000) in PBS-T were carried out overnight at 4°C. Then the membranes were washed three times with PBS-T for 10 min and afterward incubated with fluorescent secondary antibodies (IR Dye 680 or 800: Li-COR Biosciences.) diluted 1:20,000 in PBS-T for 1h at RT. Following three washing steps with PBS-T for 10 min each, the membranes were scanned using an LI-COR Odyssey CLX. Signal intensities were calculated using the Image Studio Version 2.1 software (LI-COR Biosciences). Blots were reused for staining with additional primary antibodies following the same procedure.

A further data set in a line: in vivo. Set-up: species or system Sprague Dawley rats. The method, then:
Studies investigating the pharmacokinetics of PAV-617 were performed by Vipragen Biosciences Inc in […]. The animal care committee approval numbers for the studies are: M-Tox: VIP/IAEC/41/2016 and PK: VIP/IAEC/316/2021. […]
(C) Pharmacokinetic assessment of PAV-61 7 in Sprague Da wley ra ts (S D). Ma le SD ra ts (n=4) we re dosed via three ro utes na me ly intravenous (IV )- 1 mg/kg, (IP )- 5 mg/kg an d per ora l (P O)- 5 mg/kg. Plasma concentration wa s anal yzed at di ff e ren t time intervals. Pharmacokinetic pa ra met e rs we re de t erm ine d usi ng Win No nlin . Cma x (p ea k pl asma concentration) achieved through IV wa s 12 8 ng / mL, IP wa s 36 2. 6 ng / mL an d PO wa s 15 1. 1 ng / mL at Tmax (time of pe ak concentration obser ved) 1 h, 0. 5 h an d 4 h respectively. Co mpo un d PAV-61 7 ha s mo de rate t1/2 (ter min al ha lf-life ) through IV- 7. 8 h, IP- 7 h an d PO- 3. 3 h. CL (steady-state clearance) wa s found to be mo de rate- 20 mL /m in/kg which wa s 2. 7 5 times lo wer than ra t liver bl oo d flow . Vz (volum e of di str ibuti on) wa s found to be hi gh- 12 . 7 L/kg an d F (fracti on bi oavailabi lity) wa s found to be ver y go od through IP- 80 % an d mo de rate through PO- 41 % . […]

[1] abbreviates: male, Sprague-Dawley, rat, ip, 5 mg/kg.
Setting [2] is: male, Sprague-Dawley, rat, iv, 1 mg/kg.
The mark [3] stands for this setting: male, Sprague-Dawley, rat, po, 5 mg/kg.

Usually Vd stands for a proportionality between amount in the body and measured concentration, not a real space. A word on the Tmax: it is the time at which the peak concentration occurs. As usually defined, the bioavailability is dose-corrected exposure relative to a reference, in per cent. A higher bioavailability goes with good availability. The term half-life denotes how long it takes for the measured level to halve.

Take `CCc1cc(N2CCCC2)cc2[s+]c3cc(N4CCCC4)cc(C)c3nc12.[I-]` [PAV-174, 3,7-Di(pyrrolidine-1-yl) 1-ethyl-9-methyl-phenothiazin-5-ium iodide]: in the data set on human brain organoids, the “induction of apoptosis in human brain organoids” value is listed as “no induction of apoptosis”. Also, the “cell toxicity mediated by HSV-1 infection (TUNEL-positive cells)” value in the data set on human brain organoids (HSV-1-infected brain organoids) was “lowered cell toxicity mediated by HSV-1 infection”. Moreover, the “phosphorylation of GSK3β at Ser9” value in the data set with GSK3β is listed as “increased”.

For the molecule `[I-].c1cc2nc3ccc(N4CCCC4)cc3[s+]c2cc1N1CCCC1` [PAV-617, 3,7-Di(pyrrolidine-1-yl)phenothiazine-5-ium iodide], the “CL, times lower than rat liver blood flow” value in the data set “in vivo” (male, Sprague-Dawley) is given as 2. 7 5 times. For the same molecule, the Vd in “in vivo” (male, Sprague-Dawley, rat) is 12.7 L/kg. Also, in “in vivo” (setting [1]), the Tmax came out at 0.5 h, the bioavailability was found to be 80% and the half-life is 7 h. Besides, in the data set “in vivo” (setting [2]), the Tmax amounted to 1 h and the half-life was 7.8 h. Also, in “in vivo” (setting [3]), the Tmax amounted to 4 h, the bioavailability stood at 41% and the half-life was 3.3 h. Further, the “bioavailability following intraperitoneal administration” value in the data set “in vivo” (rat, ip) is listed as “high bioavailability”. The “Cmax (peak plasma concentration), IP” value in the data set “in vivo” (rat, ip, 5 mg/kg) is given as 36 2. 6 ng/mL. Moreover, the “Cmax (peak plasma concentration), IV” value in the data set “in vivo” (rat, iv, 1 mg/kg) was 12 8 ng/mL. In the data set “in vivo” (rat, po, 5 mg/kg), the “Cmax (peak plasma concentration), PO” value is listed as 15 1. 1 ng/mL.
